Measurements from patent US9150559B2, “Anti-proliferative compounds and methods for using the same” (The Board of Trustees of the Leland Stanford Junior …, priority 2011, dated 2015).

Experiments:
[1] = test system: MV411-lucifease cell line; experiment: In vitro sensitivity of MV411-luciferase cell line; type: cell-based, human
[2] = Additional toxicity study, subcutaneous twice a day for 10 days; type: in vivo; details: mice
Method: An additional toxicity study was performed by injecting mice subcutaneously twice a day with 20 mg/kg compound formulated in 5% DMSO/20% gamma-cyclodextrin or 22.5 mg/kg compound formulated in 10% DMSO/40% captisol. for 10 consecutive days. Animals were also dosed with gamma-cyclodextrin or captisol vehicle alone.

[3] = test system: human cancer cell lines derived from 9 different tissues; experiment: NCI 60-cell line screen, growth inhibition (sulforhodamine B); type: cell-based; details: colon and prostate cancer cell lines; 48 hours incubation
Method: FIG. 1. Mean graph representing the sensitivity of 60 human cell lines to compound 1. The vertical line at GI50 (the drug concentration resulting in a 50% growth reduction) represents the mean response to 10 μM compound 1.
FIG. 2. Growth response of human cell lines grown for 2 days in the presence of increasing concentrations of compound 1.
The compounds have broad specificity and affect human cell lines of multiple lineages. The growth inhibitory properties were analyzed in human cancer cell lines derived from 9 different tissues in the NCI 60-cell line screen. To perform this assay, cells were plated in 96-well plates and incubated overnight. After 24 hours, compounds were added to the wells and plates. Two plates of each cell line were set aside and fixed in TCA to measure the quantity of cells present at the time drug was added (time 0). The remaining plates were incubated for 48 hours. The assay was terminated by addition of TCA, and the cells were quantified by staining the cellular proteins with sulforhadamine B. The growth inhibition (GI50) was calculated by dividing the difference between treated cells at the beginning and end of the assay by the difference between untreated cells at the beginning and end of the assay.

[4] = test system: human leukemia cell lines with MLL translocations; experiment: Viability of human leukemia (B-ALL) cell lines, cell titer blue assay; type: cell-based; details: 72 h, viability 3 days post-treatment, read-out: IC50 (half maximal inhibitory concentration)
Method: (§1) FIG. 3. Inhibition of human B-ALL cell lines treated with compound. Cell lines were treated with increasing concentrations of compound and assessed for viability 3 days post-treatment by cell titer blue assay.
(§2) The majority of human leukemia cell lines with MLL translocations (3/4) were inhibited more potently than non-MLL cell lines (FIG. 3); although most non-MLL cells lines (4/6) were still sensitive to the compounds. […] Compound 1 also has inhibitory effects on primary human patient ALL samples with an IC50 of 4-20 nM.

[5] = test system: cells lines with other translocations (E2A-PBX, E2A-HLF, TEL-PDGFRB); experiment: as above; type: cell-based; details: read-out: IC50 (half maximal inhibitory concentration)
Method: as §1, §2

[6] = Solubility / formulation property; type: physicochemical
[7] = Preliminary toxicity studies, daily injection over 10 days; type: in vivo
Method: Preliminary toxicity studies were performed. Mice were injected (vehicle alone, 8 mg/kg, or 16 mg/kg) daily over a 10 day-period with a 2-day holiday after the first 4 days.

[8] = Initial pharmacokinetic studies in mice; type: in vivo
Method: Initial pharmacokinetic studies were conducted in mice to inform design of pre-clinical efficacy studies.

[9] = test system: AML cell lines induced by MLL-AF10 or MLL-AF9; experiment: Effects on murine leukemia cell lines established from AMLs induced by MLL fusion oncogenes; type: cell-based
Method: Compound 1 was also tested for its effects on murine leukemia cell lines established from AMLs induced via retroviral transduction of MLL fusion oncogenes (Somervaille, T. C. & Cleary, M. L. Identification and characterization of leukemia stem cells in murine MLL-AF9 acute myeloid leukemia. Cancer Cell 10, 257-268, (2006)).

[10] = test system: primary human patient ALL samples; experiment: Inhibition of primary human patient ALL samples; type: cell-based
Method: as §2

[11] = test system: human and mouse leukemia cell lines; experiment: Apoptosis (annexin V and propidium iodide staining) after a single treatment; type: cell-based
Excerpt: Compound 1 induced death of human and mouse leukemia cell lines by apoptosis (annexin V and propidium iodide staining) within 3 days of a single treatment, indicating a cytotoxic as opposed to cytostatic effect.

[12] = test system: normal murine bone marrow progenitors; experiment: Therapeutic window: human B-ALL cell lines versus normal bone marrow progenitors; type: cell-based, human and murine
[13] = test system: MLL leukemia cell lines (RS411-MLL-AF4; HB-MLL-ENL) and control cells (REH-TEL-AML); experiment: Cell-based high-throughput phenotypic screen, cell viability by fluorescent indicator dye; parameters: species or system human; details: 2 days after addition of compounds
Method: Cell viability was assessed using a fluorescent indicator dye at 2 days after addition of compounds.

Cc1ccc(S(=O)(=O)Cc2nc(-c3ccc(C(=O)NCc4cccnc4)cc3)oc2C)cc1 [Compound 1]
IC50 ([1]; Homo sapiens, MV411-luciferase cell line): 10 nM | IC100 ([1]; MV411-luciferase cell line, printed with (±20 nM)): 25 nM | effect of pre-incubation with FBS on potency ([1]; pre-incubation of compound with FBS prior to cell treatment in vitro): no effect on potency | nephrotoxicity ([2]; gamma-cyclodextrin formulation, 20 mg/kg s.c. twice a day): No nephrotoxicity was observed | toxic side effects (histological tissue morphology, serological liver and kidney function tests) ([2]; s.c. twice a day, 20 mg/kg (5% DMSO/20% gamma-cyclodextrin) or 22.5 mg/kg (10% DMSO/40% captisol)): No toxic side effects were observed | growth inhibitory activity (GI50) in NCI 60-cell line screen [3]: particularly high activity | IC50 [4]: 1 to 10 nM | IC50 [5]: 10 to 20 nM | solubility [6]: sparingly soluble | tolerability (distress, body weight reduction) ([7]; mice, 8 or 16 mg/kg daily over 10 days with 2-day holiday): All but one animal tolerated dosing | nephrotoxicity ([7]; mice, captisol formulation, also seen in animals treated with vehicle only): Mild nephrotoxicity | cardiotoxicity ([7]; mice, high-dose group (16 mg/kg)): Severe cardiotoxicity in one animal and mild cardiotoxicity in another animal | MTD or lethal dose ([7]; mouse, in vivo): not achieved | compound remaining in plasma ([8]; at 24 hours): almost no compound remained | half-life ([8]; mouse, plasma, 16 mg/kg i.p. or s.c. (10% DMSO/40% captisol), 25 mg/kg i.p., s.c., oral (5% DMSO/20% gamma-cyclodextrin)): ~90 min | absorption into plasma ([8]; single intra-peritoneal or subcutaneous injection 16 mg/kg): quickly absorbed in plasma | sensitivity of murine AML cell lines [9]: highly sensitive | IC50 [10]: 4 to 20 nM | kinetics of cell death: completion ([11]; after treatment): 48 h | kinetics of cell death: initiation ([11]; after treatment): 24 h | time to death by apoptosis ([11]; single treatment, annexin V and propidium iodide staining): ≤ 3 days | sensitivity of human B-ALL cells versus normal murine bone marrow progenitor cells [12]: differential sensitivity

CC(=O)[C@]1(O)Cc2c(O)c3c(c(O)c2[C@@H](O[C@H]2C[C@H](N)[C@H](O)[C@H](C)O2)C1)C(=O)c1ccccc1C3=O [idarubicin, reference compound]
cell viability in high-throughput screen [13]: reduced viability of all cell lines | sensitivity of human B-ALL cells versus normal murine bone marrow progenitor cells [12]: overlapping potency
